Laboratory results as given in patent US20260285849A1, “METHYLOPHIOPOGONONE A DERIVATIVE, AND PREPARATION AND USE THEREOF” (INSTITUTE OF MATERIA MEDICA, CHINESE ACADEMY OF MEDICAL …, priority 2022, published 2026).
Read-outs that look alike come from different tables or passages of the source.

Tests used:
H9C2 cardiomyocytes [1] = assay: cells; conditions: Rattus norvegicus, H9c2, read-out: Cell viability
Protocol: (§3) H9C2 cardiomyocytes in the logarithmic growth phase were seeded into 96-well plates at a density of 7×10^4 cells/mL, with 100 μL per well.
(§4) After 24 hours of culture, the culture medium of the H/R and drug-treated groups was replaced with serum-free glucose-free DMEM medium (100 μL per well). The cells were then placed in an anaerobic incubator and cultured under hypoxic conditions in a 37° C. cell culture incubator. After 6 hours, the supernatant of the H/R and drug-treated groups was removed and replaced with high-glucose medium containing 10% fetal bovine serum (100 μL per well). Each drug-treated group received the corresponding concentration of the drug, while the H/R model group and the blank control group received an equal volume of DMSO.
(§5) After removing the supernatant, 100 μL of CCK solution (the volume of CCK accounted for 10% of the DMEM culture medium volume) was added to each well. The cells were cultured in the cell culture incubator for 1 hour, and the absorbance was measured at 450 nm using a microplate reader to calculate the cell viability. Cell viability was calculated as follows: Cell viability (%)=(Experimental well-Blank well)/(Control well-Blank well)×100%.

Rat H9C2 cardiomyocytes [2] = assay: cells; conditions: H9c2, 24 h, read-out: Cell viability
Protocol: (§6) Rat H9C2 cardiomyocytes in the logarithmic growth phase were seeded at a density of 7×10^4 cells/mL into 96-well plates, with 100 μL per well. […] After 24 hours of culture, the drug treatment groups were respectively added with 50 μM Ang II and the corresponding concentration of the drug. The Ang II model group was added with 50 μM Ang II and an equal volume of DMSO, and the blank control group was added with an equal volume of DMSO. Then, the cells were cultured for another 24 hours. After removing the supernatant, 100 μL of MTT solution (0.5 mg/mL) was added to each well, and the plates were placed in an incubator for 4 hours. After removing the supernatant again, 150 μL of DMSO was added to each well, and the mixture was shaken and mixed evenly for 10 minutes. The absorbance was measured at 570 nm using a microplate reader to calculate the cell viability.
(§7) Cell viability (%)=[(As−Ab)/(Ac−Ab)]×100% • As: Experimental well (culture medium containing cells, MTT, Ang II); • Ac: Control well (culture medium containing cells, MTT, without Ang II); • Ab: Blank well (culture medium without cells, MTT, without Ang II).

[3] = test system: mice with isoproterenol (ISO)-induced ischemic heart disease; assay: ISO-induced ischemic heart disease mouse model: myocardial tissue pathology (H&E); type: in vivo; conditions: for The number of animals with lesion degree + / The number of animals with lesion degree ++ / The number of animals with lesion degree +++ / The number of animals with lesion degree ++++ / The number of animals with lesion degree +++++ / The number of animals with lesion degree − / average score of myocardial tissue lesion degree: H&E
Protocol: (§1) Male C57BL/6 mice were allowed to acclimate to the environment and then randomly divided into 9 groups, namely the blank control group, the ISO model group, the ISO+diltiazem 20 mg/kg positive control drug group, the ISO+Formula I (0.1, 0.5, 2 mg/kg) groups, and the ISO+Formula II (0.1, 0.5, 2 mg/kg) groups. Mice in the drug administration groups were intragastrically administered the corresponding doses of Formula I and Formula II compounds once a day at the same time. Mice in the positive drug diltiazem group were intragastrically administered the corresponding dose of diltiazem once a day. Mice in the blank control group and the model group were given the same amount of solvent (0.5% CMC-Na). The administration volume was 10 mL/kg, and the administration was continuous for 11 days.
(§2) From the 4th to the 10th day of drug administration, ISO modeling was carried out. The blank control group was subcutaneously injected with normal saline, and mice in the other groups were subcutaneously injected with ISO at a dose of 40 mg/kg (modeling was performed 2 hours after drug administration), for a total of 7 times.
Pathological detection of myocardial tissue: After the experiment ended, the heart was washed with ice-cold physiological saline and dried with absorbent paper. It was then cut transversely into two halves. One-third of the part closer to the apex of the heart was fixed in a 4% paraformaldehyde solution. After dehydration with gradient ethanol and clearing with xylene, it was immersed in melted paraffin three times for embedding, 30 minutes each time. After embedding, continuous sections (about 4 μm thick) were made. Routine hematoxylin and eosin (H.E.) staining was performed. The pathological state of the myocardial tissue was observed under an optical microscope, photographed, and analyzed.
• −: No abnormalities were observed. • +: No myocardial tissue damage was seen. There was local hypertrophy of cardiomyocytes in the interventricular septum and papillary muscles, local edema and degeneration of cardiomyocytes, widening of the local muscle space in the lesion area, and mild non-specific inflammation in the interstitium. • ++: No obvious myocardial tissue damage (cardiomyocyte necrosis) was observed. There was local hypertrophy of cardiomyocytes in the interventricular septum and papillary muscles, local edema and degeneration of cardiomyocytes. Myofibril dissolution (disappearance of cross-striations) could be seen in local areas. The lesions were relatively limited and distributed in small foci. Non-specific inflammation was visible in the interstitium, and local fibrous tissue hyperplasia in the interstitium was noted. • +++: There was obvious hypertrophy of cardiomyocytes in the interventricular septum and papillary muscles, local edema and degeneration of cardiomyocytes. […] The lesion was limited to the subendocardium of the local interventricular septum (or papillary muscle), with a limited and small affected area. Non-specific inflammation was visible in the interstitium of the lesion area, and local fibrous tissue hyperplasia in the interstitium was noted. • ++++: The hypertrophy of cardiomyocytes in the interventricular septum and papillary muscles is remarkable. Locally, there is edema and degeneration of cardiomyocytes; there is obvious damage (necrosis of cardiomyocytes) in the myocardial tissue of the local interventricular septum and papillary muscles. The lesions are distributed in foci (or small patches), and the affected area is relatively large. […] Locally, there is edema and degeneration of cardiomyocytes; the damage (necrosis of cardiomyocytes) of the myocardial tissue of the local interventricular septum and papillary muscles is severe. The damage (necrosis) lesions are distributed in patches and are connected to each other. Transmural myocardial tissue damage of the interventricular septum and papillary muscles can be seen locally.

Rat H9C2 cardiomyocytes [4] = assay: cells; conditions: H9c2, 24 h, read-out: Cell survival rate
Protocol: Rat H9C2 cardiomyocytes in the logarithmic growth phase were seeded into 96-well plates at a density of 7×10^4 cells/mL, with 100 μL per well. […] After 24 hours of culture, the drug groups were treated with 800 μM ISO and the corresponding concentrations of drugs. The ISO model group received 800 μM ISO and an equal volume of DMSO, and the blank control group received an equal volume of DMSO. The cells were then cultured for another 24 hours. After removing the supernatant, 100 μL MTT solution (0.5 mg/mL) was added to each well and incubated in the cell culture incubator for 4 hours. After removing the supernatant, 150 μL DMSO was added to each well, mixed by shaking for 10 minutes, and the absorbance was measured at 570 nm using a microplate reader to calculate cell viability. Cell viability (%)=[(As−Ab)/(Ac−Ab)]×100%. As: Experimental well (medium with cells, MTT, ISO); Ac: Control well (medium with cells, MTT, without ISO); Ab: Blank well (medium without cells, MTT, without ISO).

[5] = test system: mice with isoproterenol (ISO)-induced ischemic heart disease; assay: ISO-induced ischemic heart disease mouse model: serum ANP and NT-proBNP (ELISA); type: in vivo; conditions: ISO 40 mg/kg s.c. 7 times
Protocol: as §1, §2
Detection of Myocardial Hypertrophy/Heart Failure Biomarkers: After the drug administration ended, the animals' eyes were enucleated to collect blood. The blood was left to stand at room temperature for 2 hours, and then centrifuged at 3500 rpm for 20 minutes to separate the serum. The contents of serum ANP and NT-proBNP were determined according to the instructions of the ELISA kit.

Rat H9C2 cardiomyocytes [6] = conditions: 50 μM Ang II 24 h, MTT 570 nm
Protocol: as §6, §7

H9C2 cardiomyocytes [7] = conditions: 6 h hypoxia, 12 h reoxygenation, CCK 450 nm
Protocol: as §3, §4, §5

[8] = test system: mice with isoproterenol (ISO)-induced ischemic heart disease; assay: ISO-induced ischemic heart disease mouse model: serum CK-MB (ELISA); type: in vivo
Protocol: as §1, §2
Myocardial enzyme CK-MB detection: After the administration ended, blood was collected from the animals by enucleation. The blood was left to stand at room temperature for 2 hours, and then centrifuged at 3500 rpm for 20 minutes to separate the serum. The content of CK-MB in the serum was determined according to the instructions of the ELISA kit.

[9] = 0.1 mg/kg intragastric once a day 11 days
[10] = 0.5 mg/kg intragastric once a day 11 days
[11] = 2 mg/kg intragastric once a day 11 days

`Cc1c(O)cc(O)c2c(=O)c(Cc3ccc4c(c3)OCO4)coc12` [Formula II, 3-(benzo[d][1,3]dioxol-5-ylmethyl)-5,7-dihydroxy-8-methyl-4H-chromen-4-one] showed a viability at 0.1 µM (H9C2 cardiomyocytes [1]) of 60.5%, a viability at 0.3 µM (H9C2 cardiomyocytes [1]) of 58.8% and a viability at 1 µM (H9C2 cardiomyocytes [1]) of 52.1%. It also gave a viability at 3 µM (H9C2 cardiomyocytes [1]) of 61.5%, a viability at 5 µM (H9C2 cardiomyocytes [1]) of 44.8% and a viability at 10 µM (H9C2 cardiomyocytes [1]) of 47.9%. For the same molecule, the viability at 0.1 µM (Rat H9C2 cardiomyocytes [2]) was 81.4%, the viability at 0.3 µM (Rat H9C2 cardiomyocytes [2]) was 73.5% and the viability at 1 µM (Rat H9C2 cardiomyocytes [2]) was 77.6%. The viability at 3 µM (Rat H9C2 cardiomyocytes [2]) was 73%, the viability at 10 µM (Rat H9C2 cardiomyocytes [2]) was 75.6% and the “The number of animals with lesion degree +” value ([3]; 0.1 mg/kg) was 2. For the same molecule, the “The number of animals with lesion degree ++” value ([3]; 0.1 mg/kg) was 4, the “The number of animals with lesion degree +++” value ([3]; 0.1 mg/kg) was 4 and the “The number of animals with lesion degree ++++” value ([3]; 0.1 mg/kg) was 0. For the same molecule, the “The number of animals with lesion degree +++++” value ([3]; 0.1 mg/kg) was 0, the “The number of animals with lesion degree −” value ([3]; 0.1 mg/kg) was 0 and the “average score of myocardial tissue lesion degree” value (“average score” for short) ([3]; 0.1 mg/kg) was 2.20 ± 0.79. The “The number of animals with lesion degree +” value ([3]; 0.5 mg/kg) was 3, the “The number of animals with lesion degree ++” value ([3]; 0.5 mg/kg) was 4 and the “The number of animals with lesion degree +++” value ([3]; 0.5 mg/kg) was 3. The “The number of animals with lesion degree ++++” value ([3]; 0.5 mg/kg) was 0, the “The number of animals with lesion degree +++++” value ([3]; 0.5 mg/kg) was 0 and the “The number of animals with lesion degree −” value ([3]; 0.5 mg/kg) was 0. For the same molecule, the “average score” value ([3]; 0.5 mg/kg) was 2.00 ± 0.82, the “The number of animals with lesion degree +” value ([3]; 2 mg/kg) was 6 and the “The number of animals with lesion degree ++” value ([3]; 2 mg/kg) was 1. For the same molecule, the “The number of animals with lesion degree +++” value ([3]; 2 mg/kg) was 0, the “The number of animals with lesion degree ++++” value ([3]; 2 mg/kg) was 0 and the “The number of animals with lesion degree +++++” value ([3]; 2 mg/kg) was 0. For the same molecule, the “The number of animals with lesion degree −” value ([3]; 2 mg/kg) was 4, the “average score” value ([3]; 2 mg/kg) was 0.73 ± 0.65 and the “pathological damage of myocardial tissue (H&E staining)” value ([3]; three doses (0.1, 0.5, 2 mg/kg) by gavage) was “significantly improve the pathological damage of myocardial tissue”. It also gave a viability at 0.1 µM (Rat H9C2 cardiomyocytes [4]) of 79.8%, a viability at 0.3 µM (Rat H9C2 cardiomyocytes [4]) of 79.8% and a viability at 1 µM (Rat H9C2 cardiomyocytes [4]) of 74.8%. For the same molecule, the viability at 3 µM (Rat H9C2 cardiomyocytes [4]) was 79.6%, the viability at 5 µM (Rat H9C2 cardiomyocytes [4]) was 64.9% and the viability at 10 µM (Rat H9C2 cardiomyocytes [4]) was 66.7%. It also gave an ANP [5, 9] of 303.60 ± 37.76 pg/mL, an NT-proBNP [5, 9] of 34.07 ± 4.10 pg/mL and an ANP [5, 10] of 264.38 ± 27.96 pg/mL. For the same molecule, the NT-proBNP [5, 10] was 31.31 ± 2.24 pg/mL, the ANP [5, 11] was 258.19 ± 52.28 pg/mL and the NT-proBNP [5, 11] was 31.12 ± 2.33 pg/mL. For the same molecule, the OD (Rat H9C2 cardiomyocytes [6]; 0.1 μM) was 0.876 ± 0.044, the OD (Rat H9C2 cardiomyocytes [6]; 0.3 μM) was 0.791 ± 0.062 and the OD (Rat H9C2 cardiomyocytes [6]; 1 μM) was 0.835 ± 0.052. It also gave an OD (Rat H9C2 cardiomyocytes [6]; 3 μM) of 0.785 ± 0.048, an OD (Rat H9C2 cardiomyocytes [6]; 10 μM) of 0.814 ± 0.053 and an OD (H9C2 cardiomyocytes [7]; 0.1 μM) of 0.630 ± 0.070. It also gave an OD (H9C2 cardiomyocytes [7]; 0.3 μM) of 0.612 ± 0.059, an OD (H9C2 cardiomyocytes [7]; 1 μM) of 0.542 ± 0.075 and an OD (H9C2 cardiomyocytes [7]; 3 μM) of 0.640 ± 0.070. It also gave an OD (H9C2 cardiomyocytes [7]; 5 μM) of 0.466 ± 0.023, an OD (H9C2 cardiomyocytes [7]; 10 μM) of 0.498 ± 0.071 and a CK-MB [8, 9] of 15.48 ± 1.76 ng/mL. The CK-MB [8, 10] was 12.89 ± 2.29 ng/mL and the CK-MB [8, 11] was 12.91 ± 1.53 ng/mL.
